{
  "source": "paper PMC11408460",
  "about": "(Cellular and Molecular Life Sciences: CMLS, 2024)",
  "key": {"[1]": {"conditions": "1 mg/ml peptide in 1 × PBS, 22 °C, absorbance 330 nm, triplicates, corrected against PBS", "method": "100 µl peptide solution was transferred to transparent 96-well F-bottom microplates (Greiner) and immediately processed. Before the measurement, solutions were briefly mixed by double-orbital shaking for 60 s at 240 rpm. Measurements were done at 22 °C in triplicates using a TECAN Spark plate reader at a wavelength of 330 nm and a bandwidth of 3.5 nm. Values were corrected against 1 × PBS and averaged."}, "HeLa GL cells [2]": {"system": "HeLa GL cells", "test": "Autophagy quantification via flow cytometry (membrane-bound eGFP-LC3B), HeLa GL", "assay_type": "cell-based", "conditions": "4 h; for autophagosome levels, versions of HBA1(120–132): 1 mg/ml, co-treatment with 20 µM Chloroquine, n = 10–24", "protocol": "A detailed protocol for quantification of the number of autophagosomes has previously been published. In brief, HEK293T, HeLa, and THP-1 cell lines stably expressing eGFP-LC3B (labelled as -GL respectively) were used. After cells were treated for 4 h with respective substance/fraction, cells were harvested by removing the medium and adding 0.05% trypsin (PAN Biotech). Afterwards cells were washed once with PBS and permeabilized with 0.05% (w/v) Saponin (Sigma-Aldrich) in PBS. Non-membrane bound eGFP-LC3B was washed out using PBS. Cells were fixed in 4% (w/v) paraformaldehyde in PBS. Quantification of the membrane associated eGFP-LC3B was performed using flow cytometry FACS Canto II, BD Biosciences. The mean eGFP-LC3B fluorescence intensity of the water control was then subtracted from each sample.\nTo discover endogenous regulators of autophagy, we analyzed a human peptide library derived from bone marrow (BM). In brief, marrow was removed from 1.5 kg human femur bones and homogenized in acetic acid. The homogenate was filtered to contain only peptides with a molecular mass below 30 kDa. The BM library was initially separated on a reversed-phase column. To analyze the autophagy-modulating properties of individual peptide fractions, we used a high-throughput flow cytometry-based autophagosome quantification system. A hallmark of autophagy is the transition from soluble LC3B-I to autophagosome-associated LC3B-II. In GFP-LC3B expressing HeLa cells (HeLa GL), soluble GFP-LC3B is washed out by mild permeabilization and the remaining membrane-bound GFP-LC3B is quantified by FACS as a proxy for autophagosome numbers. Changes in autophagosome content are visualized as deviations from the background (i.e. carrier) control. […] Further purification identified subfraction BM.25.40.28 as bioactive (Fig. 1c). To identify the active peptide(s) we subjected fractions BM.25.40.26 to BM.25.40.30 to analysis by mass spectrometry (Supplementary data 1). Peptides with a molecular mass from ~ 750 Da to 5360 Da and a length from 7 to 57 amino acids were found in the fractions (Supplementary Fig. 1a). […]"}, "HeLa GL cells [3]": {"system": "HeLa GL cells", "test": "Autophagy quantification by immunofluorescence (GFP-LC3B puncta area)", "assay_type": "cell-based", "conditions": "4 h, peptides 1 mg/ml, Chloroquine 10 µM, Torin-1 1 µM, confocal microscopy, n = 32–110 cells", "protocol": "HeLa GL cells were grown on coverslips (VWR) and treated for 4 h with respective substance. Afterwards, cells were fixed with 4% (w/v) PFA (Santa Cruz) for 20 min and permeabilized as well as blocked with 0.5% (v/v) Triton-X-100 (Sigma-Aldrich) and 5% (v/v) fetal bovine serum (Gibco) PBS for 1 h, both at RT. Cells were then mounted on microscope slides (VWR) in 4′,6-diamidino-2-phenylindole (DAPI, VWR)-containing Mowiol mounting medium (Mowiol 4–88 10% (w/v, Carl Roth), glycerol 25% (w/v, Sigma-Aldrich), H2O 25% (v/v), 0.2 M Tris HCl pH 8.5 50% (v/v, AppliChem GmbH, VWR), DABCO 2.5% (w/v, Carl Roth)) to co-stain nuclei. After acquiring ≥ 30 randomly selected cells using a Zeiss LSM 710 confocal microscope, a custom ImageJ (Version 1.54j) macro was used to analysis the total area of the cytoplasmic eGFP-LC3B puncta as previously described.\nScale bar, 10 µm. DAPI (blue), nuclei. e Quantitative analysis of the LC3B-GFP area per cell of the data in (d). Lines represent geometric mean with 95% confidence interval, n = 32–110. […] Student’s t-test with Welch correction. *p < 0.05; **p < 0.01; ***p < 0.001"}, "[4]": {"conditions": "human; cited from earlier work"}, "in vitro": {"test": "in vitro", "conditions": "human, plasma", "method": "(§1) The mixture was centrifuged at 13,000 rpm for 30 s, and 150 µl of the supernatant was mixed with 750 µl 10% acetic acid in ice. The samples were analyzed by an Axima Confidence MALDI-TOF MS (Shimadzu) in linear mode using exactly the same measurement conditions for all samples spotted on a 384-well plate. Wells were coated with 1 µl of 5 mg/ml CHCA previously dissolved in matrix diluent (Shimadzu), and the solvent was allowed to evaporate. Then, each sample (0.5 µl), previously mixed with matrix (0.5 µl), was applied onto the dry pre-coated well, and the solvent was allowed to evaporate. Laser shots were automatically done following a regular circular raster of a diameter of 2000 µm and spacing of 200 µm on each well; 100 profiles were acquired per sample, and 20 shots were accumulated per profile. An accelerating voltage of 20 kV was applied to the ion source. Three experiments were performed, and the measurements of each sample were done in triplicate (81 measurements in total). The measurement and MS data processing (peak area calculation) were controlled by MALDI-MS Application Shimadzu Biotech Launchpad 2.9.8.1 (Shimadzu). Half-lives were calculated by GraphPad Prism 9.3.1 (GraphPad Software, LLC)."}, "[5]": {"conditions": "HBA1(111–132) incubated in human plasma, 37 °C, mass spectrometry", "method": "as §1"}, "Circular dichroism": {"test": "Circular dichroism", "assay_type": "physicochemical", "conditions": "10 mM phosphate buffer pH 7.4, 25 °C; 130 µM HBA1(120–132), 54 µM HBA1(111–132), 2.1 µM full-length human HB", "protocol": "Circular dichroism spectroscopy was recorded on a JASCO J-1500 spectrophotometer at 25 °C using a 0.1 cm path length quartz cuvette from Hellma Analytical. Data points were collected at a resolution of 0.2 nm, an integration time of 2 s and a scanning speed of 5 nm min-1. Each spectrum was the result of three accumulated independent scans. Phosphate buffer solution (10 mM, pH = 7.4) was employed to solubilize the samples. […] Background subtraction was performed using the solvent. Secondary structure estimation (SSE) for the samples was conducted using the CD Multivariate SSE program included in the JASCO spectrometer."}},
  "note": "Residues, ends and D or L forms follow the SMILES beside them.",
  "data": [
    {"compound": "D128A: HBA1(120–132) with aspartic acid exchanged for alanine (PAVHASLAKFLAS; UniProt P69905 120-132, looked up, fragment D127A)", "values": [
      {"measurement": "solubility (precipitation turbidity, optical density)", "setting": "[1]", "result": "does not alter the function nor the solubility"},
      {"measurement": "autophagosome levels, versions of HBA1(120–132)", "setting": "HeLa GL cells [2]", "result": "does not alter the function"}
    ]},
    {"compound": "CCC(=O)N1CCN(c2ccc(-n3c(=O)ccc4cnc5ccc(-c6cnc7ccccc7c6)cc5c43)cc2C(F)(F)F)CC1", "note": "[Torin-1]", "values": [
      {"measurement": "GFP-LC3B area per cell (puncta = autophagosomes)", "setting": "HeLa GL cells [3]", "result": "expected increase of autophagosomes"}
    ]},
    {"compound": "TNF-α", "values": [
      {"measurement": "half-life", "setting": "[4]", "result": "around 18 min"}
    ]},
    {"compound": "CC(C)C[C@H](NC(=O)[C@H](CO)NC(=O)[C@H](C)NC(=O)[C@H](Cc1c[nH]cn1)NC(=O)[C@@H](NC(=O)[C@H](C)NC(=O)[C@@H]1CCCN1)C(C)C)C(=O)N[C@@H](C)C(=O)N[C@@H](C)C(=O)N[C@@H](Cc1ccccc1)C(=O)N[C@@H](CC(C)C)C(=O)N[C@@H](C)C(=O)N[C@@H](CO)C(=O)O", "note": "[HBA1(120–132)D127A + K128A] (H-PAVHASLAAFLAS-OH)", "values": [
      {"measurement": "solubility (precipitation turbidity, optical density)", "setting": "[1]", "result": "almost insoluble in water"}
    ]},
    {"compound": "CC(C)C[C@H](NC(=O)[C@H](Cc1ccccc1)NC(=O)[C@H](CCCCN)NC(=O)[C@H](CC(=O)O)NC(=O)[C@H](CC(C)C)NC(=O)[C@H](CO)NC(=O)[C@H](C)NC(=O)[C@H](Cc1c[nH]cn1)NC(=O)[C@@H](NC(=O)[C@H](C)NC(=O)[C@@H]1CCCN1C(=O)[C@@H](NC(=O)[C@H](Cc1ccccc1)NC(=O)[C@H](CCC(=O)O)NC(=O)[C@H](C)NC(=O)[C@@H]1CCCN1C(=O)[C@H](CC(C)C)NC(=O)[C@H](Cc1c[nH]cn1)NC(=O)[C@H](C)NC(=O)[C@H](C)N)[C@@H](C)O)C(C)C)C(=O)N[C@@H](C)C(=O)N[C@@H](CO)C(=O)O", "note": "[HBA1(111–132)] (H-AAHLPAEFTPAVHASLDKFLAS-OH)", "values": [
      {"measurement": "half-life at 8.7 µM", "setting": "in vitro", "result": 52, "unit": "min"}
    ]},
    {"compound": "CC(C)C[C@H](NC(=O)[C@H](Cc1ccccc1)NC(=O)[C@H](CCCCN)NC(=O)[C@H](CC(=O)O)NC(=O)[C@H](CC(C)C)NC(=O)[C@H](CO)NC(=O)[C@H](C)NC(=O)[C@H](Cc1c[nH]cn1)NC(=O)[C@@H](NC(=O)[C@H](C)NC(=O)[C@@H]1CCCN1C(=O)[C@@H](NC(=O)[C@H](Cc1ccccc1)NC(=O)[C@H](CCC(=O)O)NC(=O)[C@H](C)NC(=O)[C@@H]1CCCN1C(=O)[C@H](CC(C)C)NC(=O)[C@@H](N)Cc1c[nH]cn1)[C@@H](C)O)C(C)C)C(=O)N[C@@H](C)C(=O)N[C@@H](CO)C(=O)O", "note": "[HBA1(113–132)] (H-HLPAEFTPAVHASLDKFLAS-OH)", "values": [
      {"measurement": "time of appearance of degradation fragment above 5% of total HBA1 content", "setting": "[5]", "result": "≤ 15", "unit": "min"},
      {"measurement": "time of peak abundance of degradation fragment post plasma treatment", "setting": "[5]", "result": "> 140", "unit": "min"}
    ]},
    {"compound": "CC(C)C[C@H](NC(=O)[C@H](Cc1ccccc1)NC(=O)[C@H](CCCCN)NC(=O)[C@H](CC(=O)O)NC(=O)[C@H](CC(C)C)NC(=O)[C@H](CO)NC(=O)[C@H](C)NC(=O)[C@H](Cc1c[nH]cn1)NC(=O)[C@@H](NC(=O)[C@H](C)NC(=O)[C@@H]1CCCN1C(=O)[C@@H](NC(=O)[C@H](Cc1ccccc1)NC(=O)[C@H](CCC(=O)O)NC(=O)[C@H](C)NC(=O)[C@@H]1CCCN1)[C@@H](C)O)C(C)C)C(=O)N[C@@H](C)C(=O)N[C@@H](CO)C(=O)O", "note": "[HBA1(115–132)] (H-PAEFTPAVHASLDKFLAS-OH)", "values": [
      {"measurement": "time of appearance of degradation fragment above 5% of total HBA1 content", "setting": "[5]", "result": 180, "unit": "min"}
    ]},
    {"compound": "full-length HBA1: full-length hemoglobin A (HB subunit alpha-1)", "values": [
      {"measurement": "effect on autophagosome levels", "setting": "HeLa GL cells [2]; concentration range 1 mg/ml–7.8 µg/ml, n = 3", "result": "did not impact autophagosome levels"}
    ]},
    {"compound": "CC(C)C[C@H](NC(=O)[C@H](C)NC(=O)[C@H](C)NC(=O)[C@H](Cc1c[nH]cn1)NC(=O)[C@@H](NC(=O)[C@H](C)NC(=O)[C@@H]1CCCN1)C(C)C)C(=O)N[C@@H](CC(=O)O)C(=O)N[C@@H](CCCCN)C(=O)N[C@@H](Cc1ccccc1)C(=O)N[C@@H](CC(C)C)C(=O)N[C@@H](C)C(=O)N[C@@H](C)C(=O)O", "note": "[HBA1(120–132)S125A + S132A] (H-PAVHAALDKFLAA-OH)", "values": [
      {"measurement": "solubility (precipitation turbidity, optical density)", "setting": "[1]", "result": "remained similar to HBA1(120–132)"}
    ]},
    {"compound": "full-length HB: recombinant full-length hemoglobin", "values": [
      {"measurement": "secondary structure in solution (circular dichroism)", "setting": "Circular dichroism", "result": "mainly composed of alpha-helical structures"}
    ]},
    {"compound": "CCN(CC)CCCC(C)Nc1ccnc2cc(Cl)ccc12", "note": "(stereo not drawn) [Chloroquine]", "values": [
      {"measurement": "GFP-LC3B area per cell (puncta = autophagosomes)", "setting": "HeLa GL cells [3]", "result": "expected increase of autophagosomes"}
    ]},
    {"compound": "K127A: HBA1(120–132) with lysine exchanged for alanine (PAVHASLDAFLAS; UniProt P69905 120-132, looked up, fragment K128A)", "values": [
      {"measurement": "solubility (precipitation turbidity, optical density)", "setting": "[1]", "result": "precipitates were detected"},
      {"measurement": "autophagosome levels, versions of HBA1(120–132)", "setting": "HeLa GL cells [2]", "result": "the function to inhibit autophagy was reduced"}
    ]}
  ]
}
